We go through two compounds from patent US20080207616A1, “Quinoxalines as B Baf Inhhibitors” (AstraZeneca AB, priority 2004, published 2008).

In general, IC50 refers to the midpoint of a concentration-inhibition curve.

The experiment has as its target T1, human recombinant, purified wild type His-B-Raf protein kinase (Homo sapiens, UniProt P15056).
T1 construct: His
As to the kind of experiment: B-Raf In Vitro ELISA Assay. As to conditions: phosphorylation of MEK1; 2.5 nM B-Raf, 0.15 μM MEK1, 10 μM ATP; 1 hour preincubation at 25° C. Format: biochemical. As for the experimental part:
B-Raf In Vitro ELISA Assay
Activity of human recombinant, purified wild type His-B-Raf protein kinase was determined in vitro using an enzyme-linked immunosorbent assay (ELISA) assay format, which measures phosphorylation of the B-Raf substrate, human recombinant, purified His-derived (detagged) MEK1. The reaction utilized 2.5 nM B-Raf, 0.15 μM MEK1 and 10 μM adenosine triphosphate (ATP) in 40 mM N-(2-Hydroxyethyl)piperazine-N′-(2-ethanesulfonic acid hemisodium salt (HEPES), […] 1,4-Dithio-DL-threitol (DTT), 10 mM MgCl2, 1 mM ethylenediaminetetraacetic acid (EDTA) and 0.2 M NaCl (1×HEPES buffer), with or without compound at various concentrations, in a total reaction volume of 25 μl in 384 well plates. B-Raf and compound were preincubated in 1×HEPES buffer for 1 hour at 25° C. Reactions were initiated with addition of MEK1 and ATP in 1× HEPES buffer and incubated at 25° C. for 50 minutes and reactions stopped by addition of 10 μl 75 mM EDTA (final concentration […]) in 1×HEPES buffer. 5 μl of the assay mix was then diluted 1:20 into 50 mM EDTA in 1×HEPES buffer, transferred to 384 well black high protein binding plates and incubated overnight at 4° C. […] Blue fluorescent product was detected at excitation 325 nm and emission 420 nm using a TECAN Ultra plate reader. Data was graphed and IC50s calculated using Excel Fit (Microsoft).
Background: In an ELISA, binding on a coated surface is turned into a signal by an enzyme label.

T1 sequence (P15056 whole entry): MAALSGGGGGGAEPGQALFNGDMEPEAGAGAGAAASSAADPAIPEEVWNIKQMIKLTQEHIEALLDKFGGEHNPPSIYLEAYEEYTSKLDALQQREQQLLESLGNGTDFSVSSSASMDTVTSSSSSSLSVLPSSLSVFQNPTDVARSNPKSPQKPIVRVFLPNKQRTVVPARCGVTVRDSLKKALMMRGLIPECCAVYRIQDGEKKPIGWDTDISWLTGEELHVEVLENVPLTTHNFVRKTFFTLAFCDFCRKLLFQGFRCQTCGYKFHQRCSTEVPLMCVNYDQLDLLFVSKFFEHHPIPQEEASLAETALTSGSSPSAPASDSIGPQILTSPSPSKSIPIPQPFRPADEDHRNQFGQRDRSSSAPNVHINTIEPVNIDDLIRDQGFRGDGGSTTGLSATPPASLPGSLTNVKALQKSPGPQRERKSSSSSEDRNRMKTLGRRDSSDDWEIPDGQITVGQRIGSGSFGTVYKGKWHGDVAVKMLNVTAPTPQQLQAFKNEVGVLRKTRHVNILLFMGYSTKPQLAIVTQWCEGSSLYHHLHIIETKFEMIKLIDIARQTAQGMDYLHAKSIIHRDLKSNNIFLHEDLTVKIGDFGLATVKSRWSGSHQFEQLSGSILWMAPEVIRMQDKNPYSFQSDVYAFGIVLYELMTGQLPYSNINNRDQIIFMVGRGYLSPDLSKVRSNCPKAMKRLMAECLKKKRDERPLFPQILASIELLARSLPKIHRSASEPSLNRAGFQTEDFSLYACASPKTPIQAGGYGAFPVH

For the compound `CCc1cccc(C(=O)Nc2ccc(C)c(NC(=O)c3ccc4nccnc4c3)c2)c1` [Example 11, N-{5-[(3-Ethylbenzoyl)amino]-2-methylphenyl}quinoxaline-6-carboxamide], the IC50 turned out to be 742 nM.
On to `CCCOc1cccc(C(=O)Nc2ccc(C)c(NC(=O)c3ccc4nccnc4c3)c2)c1` [Example 12, N-{2-Methyl-5-[(3-propoxybenzoyl)amino]phenyl}quinoxaline-6-carboxamide], for which the IC50 came to 20 nM.
